Values quoted from earlier work, collected in patent US20050272755A1, “Method for treating abnormal cell growth” (priority 2004, published 2005).
Counter-ions that a name gives are not always drawn. Like-named read-outs stand apart in the source and are kept apart here.

Columns and labels:
colorectal cancer = colorectal cancer patients resistant to 5-FU
[1] = tested on: metastatic colorectal cancer

| SMILES | survival compared with 5-FU/FA best infusional regimens (colorectal cancer) | survival compared with supportive care only (colorectal cancer) | median survival ([1]; European trial) [months] | median survival ([1]; US trial) [months] | grade 3-4 toxicity: diarrhea ([1]; capecitabine treatment arms) [%] | grade 3-4 toxicity: hand-foot syndrome ([1]; capecitabine treatment arms) [%] | Overall response rate ([1]; first of the two phase III studies ('respectively'; Europe N=602 named first), capecitabine 2500 mg/m^2/day for 14 days every 3 weeks) [%] | Overall response rate ([1]; second of the two phase III studies ('respectively'; US N=605 named second)) [%] |
| --- | --- | --- | --- | --- | --- | --- | --- | --- |
| CCc1c2c(nc3ccc(OC(=O)N4CCC(N5CCCCC5)CC4)cc13)-c1cc3c(c(=O)n1C2)COC(=O)[C@]3(O)CC [CPT-11, irinotecan hydrochloride trihydrate] | longer survival | longer survival | – | – | – | – | – | – |
| CCCCCOC(=O)Nc1nc(=O)n([C@@H]2O[C@H](C)[C@@H](O)[C@H]2O)cc1F [capecitabine, 5′-deoxy-5-fluoro-N-[(pentyloxy)-carbonyl]-cytidine] | – | – | 13.3 | 12.5 | 14 | 17 | 21 | 21 |
